Experimental data reported in patent publication US12209079B2 (GENERAL INCORPORATED ASSOCIATION PHARMA VALLEY PROJECT …, priority 2017, dated 2025).

Tests used:
[1] = target: rhTDO (recombinant human TDO) (Homo sapiens, UniProt P48775); experiment: Enzyme assay using rhTDO (rate of kynurenine production); assay type: biochemical; conditions: 2 h; final concentration of the compound 10 μM; rate relative to reaction without compound; read-out: rhTDO-mediated kynurenine production
Summary of the method: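 Kynurenine output, as percent of untreated control after background subtraction, read at 490 nm with p-dimethylbenzaldehyde following TCA quench and 15 min heating at 50 °C. Reaction: rhTDO with compound, 10 min preincubation then 120 min at 37 °C, started by 20 mM tryptophan stock, in phosphate/ascorbate/methylene blue/catalase.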

TDO in A172 cells = target: T1, TDO in A172 cells (Homo sapiens, UniProt P48775); experiment: TDO cell-based assay, kynurenine production in A172 cells; conditions: A 172; final concentration of the compound 10 μM; rate relative to culture without compound
T1 construct: endogenous in cells; host or cells: A172 cells
Summary of the method: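 A172 cells were preincubated with compound for 1 h, then given L-tryptophan (final 524 μM) for 24 h at 37 °C. Kynurenine was read at 460 nm after p-dimethylbenzaldehyde/TCA reagent, background-subtracted, and expressed as % of no-compound production.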

[2] = test system: subcutaneous CT-26WT syngeneic graft of large intestine cancer; experiment: Drug efficacy test, combined use of IDO/TDO inhibitor and oxaliplatin, mice with subcutaneous CT-26WT syngeneic graft (Test Example 5); assay type: in vivo, mouse; conditions: 40 mg/kg oral twice a day in 0.5% methyl cellulose, combined with oxaliplatin 10 mg/kg i.v.; Balb/c mice; FIG. 4
Protocol: Drug Efficacy Test on Combined Use of IDO/TDO Inhibitor and Oxaliplatin Using Mice with a Subcutaneous CT-26WT Syngeneic Graft of Large Intestine Cancer
5×10^5 cells of syngeneic large intestine cancer cell line CT26WT were subcutaneously transplanted to each of 6-week-old female Balb/c mice. The mice were divided into groups each involving 6 individuals 10 days later within a tumor size range of 41-427 mm^3. The oral administration (solvent for oral administration and 40 mg/kg each of epacadostat and compounds 37, 31, 7, 15, 1, 50, 52, 76, 95, 33, 49, 2, 10, 36, 103, 38 and 29 were administered twice a day at a 5-hour interval from days 1 to 5 and days 8 to 12) and intravenous injection (5% glucose solution and 10 mg/kg oxaliplatin were administered once a day on days 1 and 8) of each agent were started. Then, the major axis and minor axis of subcutaneous tumor were measured three times a week using calipers, and a mean and standard error of the mean of the ratios of the calculated volumes to the volumes at the administration start day in each group were plotted. The calculation expression was Volume (mm^3)=[[…]×Length (mm)]/2. The agent for oral administration was suspended in 0.5% methyl cellulose as a solvent for oral administration. The results are shown in FIG. 4 (if a plurality of experiments were conducted for the same agent, the results were combined).
• with the solid line: the solvent for oral administration and the 5% glucose solution, ▪ with the solid line: compound 37 and oxaliplatin, ▴ with the solid line: epacadostat and oxaliplatin, X with the solid line: compound 31 and oxaliplatin, ∘ with the solid line: the solvent for oral administration and oxaliplatin, □ with the solid line: compound 7 and oxaliplatin, Δ with the solid line: compound 15 and oxaliplatin, X with the solid line: compound 1 and oxaliplatin, • with the broken line: compound 50 and oxaliplatin, ▪ with the broken line: compound 52 and oxaliplatin, ▴ with the broken line: compound 76 and oxaliplatin, X with the broken line: compound 95 and oxaliplatin, ∘ with the broken line: compound 33 and oxaliplatin, □ with the broken line: compound 49 and oxaliplatin, Δ with the broken line: compound 2 and oxaliplatin, + with the solid line: compound 10 and oxaliplatin, rectangle with the solid line: compound 36 and oxaliplatin, • with the dotted line: compound 103 and oxaliplatin, ▪ with the dotted line: compound 38 and oxaliplatin, and ▴ with the dotted line: compound 29 and oxaliplatin.

Chain of rhTDO (recombinant human TDO) (P48775 whole entry): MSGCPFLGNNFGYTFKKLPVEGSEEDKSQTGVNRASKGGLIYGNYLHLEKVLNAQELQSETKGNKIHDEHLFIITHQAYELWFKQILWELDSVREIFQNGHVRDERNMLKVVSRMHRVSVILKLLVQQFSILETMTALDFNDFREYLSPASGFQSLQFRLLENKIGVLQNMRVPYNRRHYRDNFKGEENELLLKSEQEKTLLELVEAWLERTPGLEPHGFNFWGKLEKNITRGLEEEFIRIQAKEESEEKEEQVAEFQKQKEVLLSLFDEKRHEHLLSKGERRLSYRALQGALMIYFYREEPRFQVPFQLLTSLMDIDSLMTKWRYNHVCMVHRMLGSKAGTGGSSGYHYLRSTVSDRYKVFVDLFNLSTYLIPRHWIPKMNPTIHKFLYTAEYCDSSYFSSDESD
T1 sequence (P48775 whole entry): as above

| SMILES | remaining activity at 10 µM [1] [%] | remaining activity at 10 µM (TDO in A172 cells) [%] | tumor growth (ratio of tumor volume to start day) [2] |
| --- | --- | --- | --- |
| Cl.Cl.N=C(N)SCc1ccccc1CSC(=N)N [Compound 1, 1,2-phenylenebis(methylene) dicarbamimidothioate dihydrochloride] | 13 | -3 | can suppress tumor growth |
| Br.Br.N=C(N)SCc1ccc(F)cc1CSC(=N)N [Compound 2, (4-fluoro-1,2-phenylene)bis(methylene) dicarbamimidothioate dihydrobromide] | 6 | 7 | can suppress tumor growth |
| Br.Br.N=C(N)SCc1ccc(Cl)cc1CSC(=N)N [Compound 7, (4-chloro-1,2-phenylene)bis(methylene) dicarbamimidothioate dihydrobromide] | 3 | -1 | can suppress tumor growth |
| Br.Br.N=C(N)SCc1ccc(Br)cc1CSC(=N)N [Compound 10, (4-bromo-1,2-phenylene)bis(methylene) dicarbamimidothioate dihydrobromide] | 3 | 2 | can suppress tumor growth |
| Br.Br.N=C(N)SCc1cscc1CSC(=N)N [Compound 15, thiophene-3,4-diylbis(methylene) dicarbamimidothioate dihydrobromide] | 12 | 7 | can suppress tumor growth |
| c1ccc(CSC2=NCN(CC3CCCCC3)CN2)c(CSC2=NCN(CC3CCCCC3)CN2)c1 [Compound 29, 1,2-bis(((5-(cyclohexylmethyl)-1,4,5,6-tetrahydro-1,3,5-triazin-2-yl)thio)methyl)benzene] | 15 | 0 | can suppress tumor growth |
| Br.Br.N=C(N)SCc1ccsc1CSC(=N)N [Compound 31, thiophene-2,3-diylbis(methylene) dicarbamimidothioate dihydrobromide] | 17 | 20 | can suppress tumor growth |
| Cl.Cl.c1ccc(CCN2CN=C(SCc3cscc3CSC3=NCN(CCc4ccccc4)CN3)NC2)cc1 [Compound 33, 3,4-Bis{[(5-phenethyl-1,4,5,6-tetrahydro-1,3,5-triazin-2-yl)thio]methyl}thiophene dihydrochloride] | 21 | 4 | can suppress tumor growth |
| Clc1cc(CSC2=NCN(CCc3ccccc3)CN2)c(CSC2=NCN(CCc3ccccc3)CN2)cc1Cl [Compound 37, 6,6′-(((4,5-Dichloro-1,2-phenylene)bis(methylene))bis(sulfanediyl))bis(3-phenethyl-1,2,3,4-tetrahydro-1,3,5-triazine)] | < 7 | -9 | can suppress tumor growth |
| N/C(=N\c1ccc(Br)cc1)SCc1ccc(Br)cc1CS/C(N)=N/c1ccc(Br)cc1 [Compound 49, (4-Bromo-1,2-phenylene)bis(methylene) (E,E)-bis(N′-(4-bromophenyl)carbamimidothioate)] | 15 | 8 | can suppress tumor growth |
| Clc1cc(CSC2=NCN(CC3CCCCC3)CN2)c(CSC2=NCN(CC3CCCCC3)CN2)cc1Cl [Compound 50, 6,6′-(((4,5-Dichloro-1,2-phenylene)bis(methylene))bis(sulfanediyl))bis(3-(cyclohexylmethyl)-1,2,3,4-tetrahydro-1,3,5-triazine)] | 4 | 4 | can suppress tumor growth |
| Brc1ccc(CSC2=NCN(CC3CCCCC3)CN2)c(CSC2=NCN(CC3CCCCC3)CN2)c1 [Compound 52, 6,6′-(((4-Bromo-1,2-phenylene)bis(methylene))bis(sulfanediyl))bis(3-(cyclohexylmethyl)-1,2,3,4-tetrahydro-1,3,5-triazine)] | 5 | 5 | can suppress tumor growth |
| Br.N#Cc1ccc(CNC(=O)c2ccc(Br)cc2CSC(=N)N)cc1 [Compound 76, 5-Bromo-2-((4-cyanobenzyl)carbamoyl)benzyl carbamimidothioate hydrobromide] | 15 | 24 | can suppress tumor growth |
| Br.Br.N/C(=N\c1ccc(F)cc1F)SCc1ccccc1CS/C(N)=N/c1ccc(F)cc1F [Compound 95, 1,2-Phenylenebis(methylene) (E,E)-bis(N-(2,4-difluorophenyl)carbamimidothioate)dihydrobromide] | 6 | -7 | can suppress tumor growth |
| Br.N#Cc1ccc(CNC(=O)c2cc(Br)ccc2CSC(=N)N)cc1 [Compound 103, 4-Bromo-2-((4-cyanobenzyl)carbamoyl)benzyl carbamimidothioate hydrobromide] | 22 | 18 | can suppress tumor growth |
